Measured values taken from patent US12479847B2 (DANA-FARBER CANCER INSTITUTE, INC., priority 2019, dated 2025).
Where two headings read alike, the source gives them in different places.

Tests used:
Assay in all cases: KINOMEscan (ScanMAX) kinase profiling
Format in all cases: binding
[1] = target: T1, panel of 468 kinases (Homo sapiens, UniProt P10721, D816V); conditions: KIT(D816V); 1 μM; read-out: % control
T1 construct: purchased KINOMEscan (ScanMAX) service

[2] = target: T2, panel of 468 kinases (Homo sapiens, UniProt Q15375); conditions: EPHA7; 1 μM; read-out: % control
T2 construct: purchased KINOMEscan (ScanMAX) service

[3] = target: T3, panel of 468 kinases (Homo sapiens, UniProt Q9Y6E0); conditions: MST3; 1 μM; read-out: % control
T3 construct: purchased KINOMEscan (ScanMAX) service

[4] = target: T4, panel of 468 kinases (Homo sapiens, UniProt Q9HCP0); conditions: CSNK1G1; 1 μM; read-out: % control
T4 construct: purchased KINOMEscan (ScanMAX) service

[5] = target: T5, panel of 468 kinases (Homo sapiens, UniProt P52564); conditions: MEK6; 1 μM; read-out: % control
T5 construct: purchased KINOMEscan (ScanMAX) service
T5 sequence (P52564 1-334): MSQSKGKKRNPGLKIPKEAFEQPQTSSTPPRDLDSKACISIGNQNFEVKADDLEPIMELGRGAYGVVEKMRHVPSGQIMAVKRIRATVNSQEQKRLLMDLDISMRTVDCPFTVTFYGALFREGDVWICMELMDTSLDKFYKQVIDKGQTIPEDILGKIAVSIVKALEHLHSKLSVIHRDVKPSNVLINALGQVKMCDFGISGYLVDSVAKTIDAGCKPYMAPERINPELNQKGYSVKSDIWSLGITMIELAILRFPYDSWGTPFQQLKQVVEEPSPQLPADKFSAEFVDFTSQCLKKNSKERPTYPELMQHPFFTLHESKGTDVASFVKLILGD

[6] = target: T6, panel of 468 kinases (Homo sapiens, UniProt Q5VT25); conditions: MRCKA; 1 μM; read-out: % control
T6 construct: purchased KINOMEscan (ScanMAX) service
T6 sequence (Q5VT25 whole entry): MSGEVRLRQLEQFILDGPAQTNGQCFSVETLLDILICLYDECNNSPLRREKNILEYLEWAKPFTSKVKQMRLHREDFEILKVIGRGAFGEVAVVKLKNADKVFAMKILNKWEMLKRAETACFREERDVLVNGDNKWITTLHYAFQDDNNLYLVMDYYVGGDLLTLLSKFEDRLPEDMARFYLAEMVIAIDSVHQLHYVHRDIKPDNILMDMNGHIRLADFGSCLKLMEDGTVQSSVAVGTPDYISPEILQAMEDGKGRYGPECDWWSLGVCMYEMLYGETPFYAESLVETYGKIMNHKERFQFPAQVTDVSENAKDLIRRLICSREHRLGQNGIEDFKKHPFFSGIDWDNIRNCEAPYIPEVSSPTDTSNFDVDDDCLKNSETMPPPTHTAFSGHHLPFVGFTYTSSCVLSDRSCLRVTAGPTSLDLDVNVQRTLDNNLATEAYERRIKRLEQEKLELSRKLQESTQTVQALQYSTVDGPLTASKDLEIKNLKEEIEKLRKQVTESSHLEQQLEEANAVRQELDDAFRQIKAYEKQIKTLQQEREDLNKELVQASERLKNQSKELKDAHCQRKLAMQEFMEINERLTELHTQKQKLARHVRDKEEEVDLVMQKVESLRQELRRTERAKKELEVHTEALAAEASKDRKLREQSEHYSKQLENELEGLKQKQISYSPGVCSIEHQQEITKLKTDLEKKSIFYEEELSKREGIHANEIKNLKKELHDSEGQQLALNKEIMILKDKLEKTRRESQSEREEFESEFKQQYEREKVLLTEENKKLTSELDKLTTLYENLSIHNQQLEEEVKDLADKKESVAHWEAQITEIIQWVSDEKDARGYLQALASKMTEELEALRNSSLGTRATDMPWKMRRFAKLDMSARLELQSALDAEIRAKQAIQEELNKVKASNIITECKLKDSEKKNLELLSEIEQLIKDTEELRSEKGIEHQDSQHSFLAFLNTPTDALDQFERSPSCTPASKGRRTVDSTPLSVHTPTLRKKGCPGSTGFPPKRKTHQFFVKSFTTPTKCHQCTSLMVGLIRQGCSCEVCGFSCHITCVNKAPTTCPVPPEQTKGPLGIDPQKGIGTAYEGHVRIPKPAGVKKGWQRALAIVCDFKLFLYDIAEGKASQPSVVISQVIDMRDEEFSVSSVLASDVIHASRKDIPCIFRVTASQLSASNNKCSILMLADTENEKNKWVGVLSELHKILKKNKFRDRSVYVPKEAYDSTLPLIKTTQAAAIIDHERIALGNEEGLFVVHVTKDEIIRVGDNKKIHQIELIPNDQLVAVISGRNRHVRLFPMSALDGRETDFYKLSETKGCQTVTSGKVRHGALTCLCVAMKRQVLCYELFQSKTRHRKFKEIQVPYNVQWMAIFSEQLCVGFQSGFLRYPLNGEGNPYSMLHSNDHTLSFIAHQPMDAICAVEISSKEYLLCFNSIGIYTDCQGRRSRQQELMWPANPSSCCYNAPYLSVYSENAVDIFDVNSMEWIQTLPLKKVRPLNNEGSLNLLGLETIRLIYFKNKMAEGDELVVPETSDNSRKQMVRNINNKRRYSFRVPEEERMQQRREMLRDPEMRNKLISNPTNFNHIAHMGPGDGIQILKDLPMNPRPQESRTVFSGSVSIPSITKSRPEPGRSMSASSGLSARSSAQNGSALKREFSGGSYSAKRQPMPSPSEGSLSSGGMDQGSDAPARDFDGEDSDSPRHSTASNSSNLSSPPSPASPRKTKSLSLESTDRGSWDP

[7] = target: T7, panel of 468 kinases (Homo sapiens, UniProt Q9UK32); conditions: 1 μM, read-out: % control
T7 construct: purchased KINOMEscan (ScanMAX) service

[8] = target: T8, panel of 468 kinases (Homo sapiens, UniProt Q9Y2I7); conditions: PIKFYVE; 1 μM; read-out: % control
T8 construct: purchased KINOMEscan (ScanMAX) service
T8 sequence (Q9Y2I7 whole entry): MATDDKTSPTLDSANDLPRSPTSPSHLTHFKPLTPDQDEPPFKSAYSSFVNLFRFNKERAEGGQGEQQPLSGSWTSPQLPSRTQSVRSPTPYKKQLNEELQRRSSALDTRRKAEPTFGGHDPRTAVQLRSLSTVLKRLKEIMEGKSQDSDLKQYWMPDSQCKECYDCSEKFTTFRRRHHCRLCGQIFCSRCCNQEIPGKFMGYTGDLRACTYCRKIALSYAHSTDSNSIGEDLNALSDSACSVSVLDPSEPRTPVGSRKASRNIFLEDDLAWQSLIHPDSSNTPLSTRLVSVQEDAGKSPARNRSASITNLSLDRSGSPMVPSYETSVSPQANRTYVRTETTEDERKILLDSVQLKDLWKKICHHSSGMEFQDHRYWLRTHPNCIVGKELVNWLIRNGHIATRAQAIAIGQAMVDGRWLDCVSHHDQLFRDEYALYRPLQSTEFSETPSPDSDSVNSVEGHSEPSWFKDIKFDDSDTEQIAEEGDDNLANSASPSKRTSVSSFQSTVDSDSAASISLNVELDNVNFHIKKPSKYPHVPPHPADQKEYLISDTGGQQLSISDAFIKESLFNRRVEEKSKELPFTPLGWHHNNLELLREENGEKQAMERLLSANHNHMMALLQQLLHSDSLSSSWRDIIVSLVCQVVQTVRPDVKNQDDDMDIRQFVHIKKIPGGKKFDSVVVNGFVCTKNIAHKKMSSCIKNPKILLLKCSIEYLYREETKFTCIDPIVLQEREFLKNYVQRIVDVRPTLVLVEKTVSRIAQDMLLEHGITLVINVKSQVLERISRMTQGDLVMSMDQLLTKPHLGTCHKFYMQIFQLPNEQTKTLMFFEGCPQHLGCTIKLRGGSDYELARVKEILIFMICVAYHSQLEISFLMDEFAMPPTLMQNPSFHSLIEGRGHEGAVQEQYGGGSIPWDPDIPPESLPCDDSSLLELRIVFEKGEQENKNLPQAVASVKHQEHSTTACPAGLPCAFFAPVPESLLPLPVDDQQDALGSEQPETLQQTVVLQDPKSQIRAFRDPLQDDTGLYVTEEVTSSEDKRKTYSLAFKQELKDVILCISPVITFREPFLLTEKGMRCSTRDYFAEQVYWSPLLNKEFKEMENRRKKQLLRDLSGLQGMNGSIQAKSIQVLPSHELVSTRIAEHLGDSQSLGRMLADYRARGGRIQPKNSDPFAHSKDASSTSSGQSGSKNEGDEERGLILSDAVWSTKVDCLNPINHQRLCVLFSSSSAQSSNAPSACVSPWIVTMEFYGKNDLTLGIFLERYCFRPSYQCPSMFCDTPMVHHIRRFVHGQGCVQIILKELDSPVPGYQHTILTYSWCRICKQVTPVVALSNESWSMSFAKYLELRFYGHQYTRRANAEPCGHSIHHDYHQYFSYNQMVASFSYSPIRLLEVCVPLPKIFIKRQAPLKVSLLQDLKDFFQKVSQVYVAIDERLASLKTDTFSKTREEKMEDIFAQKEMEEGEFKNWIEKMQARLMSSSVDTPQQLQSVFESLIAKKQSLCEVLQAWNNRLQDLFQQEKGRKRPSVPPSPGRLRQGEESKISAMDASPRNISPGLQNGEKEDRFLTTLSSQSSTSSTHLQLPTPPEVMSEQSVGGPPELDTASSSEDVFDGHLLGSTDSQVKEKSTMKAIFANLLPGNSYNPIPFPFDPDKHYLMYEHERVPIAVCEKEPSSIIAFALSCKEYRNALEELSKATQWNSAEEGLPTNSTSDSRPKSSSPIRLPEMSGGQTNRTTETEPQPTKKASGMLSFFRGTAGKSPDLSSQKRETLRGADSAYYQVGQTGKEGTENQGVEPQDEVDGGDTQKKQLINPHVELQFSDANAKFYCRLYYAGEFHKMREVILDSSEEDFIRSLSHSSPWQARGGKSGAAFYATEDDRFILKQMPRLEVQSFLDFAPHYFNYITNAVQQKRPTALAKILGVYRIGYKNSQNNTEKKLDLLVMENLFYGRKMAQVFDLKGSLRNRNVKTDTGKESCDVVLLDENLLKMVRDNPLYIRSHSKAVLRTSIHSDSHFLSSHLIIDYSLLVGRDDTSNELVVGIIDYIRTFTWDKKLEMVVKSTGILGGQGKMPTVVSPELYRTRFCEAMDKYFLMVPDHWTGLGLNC

[9] = target: T9, panel of 468 kinases (Homo sapiens, UniProt Q86Z02); conditions: HIPK1; 1 μM; read-out: % control
T9 construct: purchased KINOMEscan (ScanMAX) service

[10] = target: T10, panel of 468 kinases (Homo sapiens, UniProt Q92630); conditions: DYRK2; 1 μM; read-out: % control
T10 construct: purchased KINOMEscan (ScanMAX) service
T10 sequence (Q92630 1-601): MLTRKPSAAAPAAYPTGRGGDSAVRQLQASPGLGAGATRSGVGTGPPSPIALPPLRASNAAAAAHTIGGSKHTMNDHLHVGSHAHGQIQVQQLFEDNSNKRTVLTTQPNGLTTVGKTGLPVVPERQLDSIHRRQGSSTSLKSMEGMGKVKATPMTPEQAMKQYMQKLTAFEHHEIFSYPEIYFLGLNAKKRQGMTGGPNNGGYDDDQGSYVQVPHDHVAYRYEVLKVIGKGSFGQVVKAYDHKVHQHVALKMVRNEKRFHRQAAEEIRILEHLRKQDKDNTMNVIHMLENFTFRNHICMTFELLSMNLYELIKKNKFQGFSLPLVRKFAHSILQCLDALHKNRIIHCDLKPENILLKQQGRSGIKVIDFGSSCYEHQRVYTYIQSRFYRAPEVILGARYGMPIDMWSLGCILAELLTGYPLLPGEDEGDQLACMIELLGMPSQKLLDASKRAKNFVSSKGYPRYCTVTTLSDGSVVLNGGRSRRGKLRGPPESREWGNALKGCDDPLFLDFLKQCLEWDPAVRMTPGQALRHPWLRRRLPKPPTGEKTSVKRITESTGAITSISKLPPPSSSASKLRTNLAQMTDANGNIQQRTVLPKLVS

[11] = target: T11, panel of 468 kinases (Homo sapiens, UniProt Q9BWU1); conditions: CDK11; 1 μM; read-out: % control
T11 construct: purchased KINOMEscan (ScanMAX) service

[12] = target: T12, panel of 468 kinases (Homo sapiens, UniProt P07949); conditions: RET; 1 μM; read-out: % control
T12 construct: purchased KINOMEscan (ScanMAX) service
T12 sequence (P07949 29-1114): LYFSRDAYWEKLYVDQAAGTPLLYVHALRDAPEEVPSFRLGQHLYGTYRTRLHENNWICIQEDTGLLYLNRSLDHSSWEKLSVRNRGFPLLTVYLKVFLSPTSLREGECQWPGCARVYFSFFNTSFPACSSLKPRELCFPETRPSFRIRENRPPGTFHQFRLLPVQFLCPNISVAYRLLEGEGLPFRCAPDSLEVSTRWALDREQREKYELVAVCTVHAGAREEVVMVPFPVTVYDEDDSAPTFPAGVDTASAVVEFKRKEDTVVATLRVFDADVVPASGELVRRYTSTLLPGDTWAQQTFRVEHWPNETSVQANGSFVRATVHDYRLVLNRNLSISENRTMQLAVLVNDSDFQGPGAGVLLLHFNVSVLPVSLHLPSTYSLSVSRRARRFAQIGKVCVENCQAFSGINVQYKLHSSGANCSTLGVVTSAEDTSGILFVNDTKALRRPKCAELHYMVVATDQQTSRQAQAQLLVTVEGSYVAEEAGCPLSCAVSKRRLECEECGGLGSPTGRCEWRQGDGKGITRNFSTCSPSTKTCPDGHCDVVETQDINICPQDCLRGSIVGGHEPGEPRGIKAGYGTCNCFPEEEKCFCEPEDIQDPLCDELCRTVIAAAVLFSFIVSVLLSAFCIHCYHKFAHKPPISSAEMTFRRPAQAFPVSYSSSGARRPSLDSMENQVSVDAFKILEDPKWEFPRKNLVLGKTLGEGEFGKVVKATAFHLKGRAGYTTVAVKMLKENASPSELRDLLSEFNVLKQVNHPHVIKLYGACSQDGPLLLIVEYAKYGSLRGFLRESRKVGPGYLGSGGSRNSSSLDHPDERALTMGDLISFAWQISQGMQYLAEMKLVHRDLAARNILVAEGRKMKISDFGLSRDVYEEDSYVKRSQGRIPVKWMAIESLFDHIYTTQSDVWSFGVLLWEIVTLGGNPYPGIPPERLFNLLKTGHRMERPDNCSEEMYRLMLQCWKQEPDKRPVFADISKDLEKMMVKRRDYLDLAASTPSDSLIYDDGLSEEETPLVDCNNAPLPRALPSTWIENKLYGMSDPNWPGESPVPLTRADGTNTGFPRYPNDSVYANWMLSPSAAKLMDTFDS

[13] = target: T13, panel of 468 kinases (Homo sapiens, UniProt O75116); conditions: ROCK2; 1 μM; read-out: % control
T13 construct: purchased KINOMEscan (ScanMAX) service

[14] = target: T14, panel of 468 kinases (Homo sapiens, UniProt Q13882); conditions: BRK; 1 μM; read-out: % control
T14 construct: purchased KINOMEscan (ScanMAX) service

Work on CNc1nc(Nc2ccc(S(=O)(=O)N3CCC(N4CCOCC4)CC3)cc2OC)nc2[nH]cc(Cl)c12 [Compound 12, 5-chloro-N2-(2-methoxy-4-((4-morpholinopiperidin-1-yl)sulfonyl)phenyl)-N4-methyl-7H-pyrrolo[2,3-d]pyrimidine-2,4-diamine] yielded a remaining binding at 1 µM [1] of 100%, a remaining binding at 1 µM [2] of 100% and a remaining binding at 1 µM [3] of 97%. The remaining binding at 1 µM [4] was 100%, the remaining binding at 1 µM [5] was 96% and the remaining binding at 1 µM [6] was 100%. It also gave a remaining binding at 1 µM ([7]; RSK4(Kin.Dom.1-N-terminal)) of 96%, a remaining binding at 1 µM ([7]; RSK4(Kin.Dom.2-C-terminal)) of 99% and a remaining binding at 1 µM [8] of 64%. The remaining binding at 1 µM [9] was 48%, the remaining binding at 1 µM [10] was 13% and the remaining binding at 1 µM [11] was 100%. It also gave a remaining binding at 1 µM [12] of 100%, a remaining binding at 1 µM [13] of 86% and a remaining binding at 1 µM [14] of 100%.
Molecule CNc1nc(Nc2ccc(C(=O)N3CCC(N4CCOCC4)CC3)c3c2OCO3)nc2[nH]cc(Cl)c12 [Compound 75, (7-((5-chloro-4-(methylamino)-7H-pyrrolo[2,3-d]pyrimidin-2-yl)amino)benzo[d][1,3]dioxol-4-yl)(4-morpholinopiperidin-1-yl)methanone] has a remaining binding at 1 µM [1] of 98%, a remaining binding at 1 µM [2] of 100% and a remaining binding at 1 µM [3] of 98%. For the same molecule, the remaining binding at 1 µM [4] was 28%, the remaining binding at 1 µM [5] was 10% and the remaining binding at 1 µM [6] was 100%. It also gave a remaining binding at 1 µM ([7]; RSK4(Kin.Dom.1-N-terminal)) of 86%, a remaining binding at 1 µM ([7]; RSK4(Kin.Dom.2-C-terminal)) of 100% and a remaining binding at 1 µM [8] of 72%. It also gave a remaining binding at 1 µM [9] of 23%, a remaining binding at 1 µM [10] of 14% and a remaining binding at 1 µM [11] of 98%. The remaining binding at 1 µM [12] was 100%, the remaining binding at 1 µM [13] was 35% and the remaining binding at 1 µM [14] was 99%.
CNc1nc(Nc2ccc(P3(=O)CCN(C4CCOCC4)CC3)cc2OC)nc2[nH]cc(Cl)c12 [Compound 77, 4-(4-((5-chloro-4-(methylamino)-7H-pyrrolo[2,3-d]pyrimidin-2-yl)amino)-3-methoxyphenyl)-1-(tetrahydro-2H-pyran-4-yl)-1,4-azaphosphinane 4-oxide] showed a remaining binding at 1 µM [1] of 100%, a remaining binding at 1 µM [2] of 100% and a remaining binding at 1 µM [3] of 88%. The remaining binding at 1 µM [4] was 100%, the remaining binding at 1 µM [5] was 56% and the remaining binding at 1 µM [6] was 92%. For the same molecule, the remaining binding at 1 µM ([7]; RSK4(Kin.Dom.1-N-terminal)) was 92%, the remaining binding at 1 µM ([7]; RSK4(Kin.Dom.2-C-terminal)) was 77% and the remaining binding at 1 µM [8] was 70%. For the same molecule, the remaining binding at 1 µM [9] was 32%, the remaining binding at 1 µM [10] was 47% and the remaining binding at 1 µM [11] was 100%. For the same molecule, the remaining binding at 1 µM [12] was 100%, the remaining binding at 1 µM [13] was 96% and the remaining binding at 1 µM [14] was 94%.
